Assays:
[1] = molecular target: T1, binding of PCK1 to Insig1 (Homo sapiens, UniProt P35558); test: Immunoprecipitation of IGF1-induced PCK1-Insig1 binding, Huh7; assay type: cell-based; set-up: expressed in transfected cells; host or cells: Huh7; conditions: Flag-PCK1-expressing Huh7 cells, peptide 15 µM 1 h before IGF1 100 ng/mL
T1 sequence (P35558 1-622): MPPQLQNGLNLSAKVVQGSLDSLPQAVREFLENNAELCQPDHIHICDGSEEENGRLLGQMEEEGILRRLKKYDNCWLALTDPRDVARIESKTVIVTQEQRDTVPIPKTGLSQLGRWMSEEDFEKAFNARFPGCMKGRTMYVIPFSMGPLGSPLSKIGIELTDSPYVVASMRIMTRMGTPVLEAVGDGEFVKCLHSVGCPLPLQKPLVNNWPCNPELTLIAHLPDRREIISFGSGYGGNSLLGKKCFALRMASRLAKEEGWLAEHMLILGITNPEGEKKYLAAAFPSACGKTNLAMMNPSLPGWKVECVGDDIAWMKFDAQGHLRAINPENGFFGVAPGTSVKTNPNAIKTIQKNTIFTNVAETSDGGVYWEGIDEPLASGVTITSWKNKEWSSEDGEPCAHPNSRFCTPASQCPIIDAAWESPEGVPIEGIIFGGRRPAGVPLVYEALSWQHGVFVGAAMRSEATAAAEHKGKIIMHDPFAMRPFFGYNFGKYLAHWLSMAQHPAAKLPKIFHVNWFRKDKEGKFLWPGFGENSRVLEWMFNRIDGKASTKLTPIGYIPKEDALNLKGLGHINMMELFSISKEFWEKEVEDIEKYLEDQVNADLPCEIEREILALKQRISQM
Experimental: Figure 1 The Insig1/2 loop 1 peptide binds to S90‐phosphorylated PCK1 and blocks PCK1‐mediated SREBP activation and tumor cell proliferation. Immunoblotting analyses were performed using the indicated antibodies; representative results from three independent experiments are shown (IP, immunoprecipitation; WB, western blot). a) Huh7 cells expressing various Insig1 (top) or Insig2 (bottom) truncation mutants were treated with or without IGF1 (100 ng mL^−1) for 1 h. b,c) Biolayer interferometry assays (Sartorius Octet) were employed to measure the binding affinity of Insig1/2 loop 1 peptide to GST‐PCK1 or GST‐PCK1 pS90 proteins. […] Statistical significance was determined by one‐way analysis of variance (ANOVA). g) Following pretreatment with Insig1/2 loop 1 peptide (15 µM) and IGF1 stimulation (100 ng mL^−1, 8 h), Huh7 cells were subjected to immunofluorescence analysis (scale bar: 10 µm). h) Quantitative PCR analysis of SREBP1 target gene GPAM in Huh7 cells pretreated with Insig1/2 loop 1 peptide (15 µM) and stimulated with IGF1 (100 ng mL^−1) for 10 h. […] Statistical significance was determined by one‐way analysis of variance (ANOVA). i) Quantitative PCR analysis of SREBP1 target gene FASN in Huh7 cells pretreated with Insig1/2 loop 1 peptide (15 µM) and stimulated with IGF1 (100 ng mL^−1) for 10 h. […]

Hep3B cells = test: Triglyceride (TG) detection assay, Hep3B; assay type: cell-based, human; conditions: peptide 25 μM, IGF1 100 ng/mL 24 h, n = 3
Experimental: Cells were harvested and processed for triglyceride (TG) quantification using the Amplex Red Triglyceride Assay Kit (Beyotime, Catalog No. S0129S) according to the manufacturer's instructions. Briefly, collect 1 million cells and add 200 µL of isopropanol. Centrifuge at 12 000 × g for 3–5 min at 4 °C, and collect the supernatant for subsequent analysis. Dilute the supernatant tenfold with assay buffer, and then add 50 µL of the diluted sample to a 96‐well black plate, add 2 µL of lipase, and mix thoroughly. Incubate at 37 °C for 20 min. Then, add 50 µL of the triglyceride detection working solution and mix well, incubate at 37 °C for 60 min in the dark. Set the excitation wavelength to 560 nm and the emission wavelength to 590 nm to measure the fluorescence intensity.
f) Intracellular triglyceride (TG) content was quantified in Hep3B cells pretreated with Insig1/2 loop 1 peptide (25 μM) and stimulated with IGF1 (100 ng ml⁻¹) for 24 h.

RKKRRQRRRLYPCIDSHLGEPHKFKRE [Insig1/2 loop 1 peptide]
IGF1-induced binding of PCK1 to Insig1 [1]: markedly inhibited | IGF1-induced increase in triglycerides (TGs) (Hep3B cells): reduced
